Assays:
[1] = target: Vascular endothelial growth factor receptor 1 (Homo sapiens) (UniProt P17948); experiment: Inhibition of T7 bacteriophage fused human FLT1 at 10 uM by KINOMEscan analysis relative to control
[2] = system: Mast/stem cell growth factor receptor Kit (Homo sapiens), P10721 [V559D,T670I]; experiment: Inhibition of T7 bacteriophage fused human KIT V559D/T670I mutant at 10 uM by KINOMEscan analysis relative to control; values are per cent of control
[3] = target: Myotonin-protein kinase (Homo sapiens) (UniProt Q09013); experiment: Inhibition of T7 bacteriophage fused human DMPK at 10 uM by KINOMEscan analysis relative to control
[4] = target: Dual specificity mitogen-activated protein kinase kinase 4 (Homo sapiens) (UniProt P45985); experiment: Inhibition of T7 bacteriophage fused human MEK4 at 10 uM by KINOMEscan analysis relative to control
[5] = target: Calcium/calmodulin-dependent protein kinase type II subunit alpha (Homo sapiens) (UniProt Q9UQM7); experiment: Inhibition of T7 bacteriophage fused human CAMK2A at 10 uM by KINOMEscan analysis relative to control
[6] = target: RAF proto-oncogene serine/threonine-protein kinase (Homo sapiens) (UniProt P04049); experiment: Inhibition of T7 bacteriophage fused human RAF1 at 10 uM by KINOMEscan analysis relative to control
[7] = target: Serine/threonine-protein kinase PLK3 (Homo sapiens) (UniProt Q9H4B4); experiment: Inhibition of T7 bacteriophage fused human PLK3 at 10 uM by KINOMEscan analysis relative to control
[8] = system: Epidermal growth factor receptor (Homo sapiens), P00533 [G719C]; experiment: Inhibition of T7 bacteriophage fused human EGFR G719C mutant at 10 uM by KINOMEscan analysis relative to control
[9] = target: Myosin light chain kinase 2, skeletal/cardiac muscle (Homo sapiens) (UniProt Q9H1R3); experiment: Inhibition of T7 bacteriophage fused human MYLK2 at 10 uM by KINOMEscan analysis relative to control; values are per cent of control
[10] = target: Interferon-induced, double-stranded RNA-activated protein kinase (Homo sapiens) (UniProt P19525); experiment: Inhibition of T7 bacteriophage fused human PRKR at 10 uM by KINOMEscan analysis relative to control
[11] = system: Tyrosine-protein kinase ABL1 (Homo sapiens), P00519 [T315I]; experiment: Inhibition of T7 bacteriophage fused human phosphorylated ABL1 T315I mutant at 10 uM by KINOMEscan analysis relative to control
[12] = system: Mast/stem cell growth factor receptor Kit (Homo sapiens), P10721 [D816V]; experiment: Inhibition of T7 bacteriophage fused human KIT D816V mutant at 10 uM by KINOMEscan analysis relative to control
[13] = system: Epidermal growth factor receptor (Homo sapiens), P00533 [G719S]; experiment: Inhibition of T7 bacteriophage fused human EGFR G719S mutant at 10 uM by KINOMEscan analysis relative to control
[14] = target: Inhibitor of nuclear factor kappa-B kinase subunit beta (Homo sapiens) (UniProt O14920); experiment: Inhibition of T7 bacteriophage fused human IKK-beta at 10 uM by KINOMEscan analysis relative to control
[15] = target: Cyclin-dependent kinase 4/cyclin D1 (Homo sapiens) (UniProt P11802+P24385); experiment: Inhibition of T7 bacteriophage fused human CDK4-cyclinD1 at 10 uM by KINOMEscan analysis relative to control; type: protein-complex assay
[16] = target: Serine/threonine-protein kinase 36 (Homo sapiens) (UniProt Q9NRP7); experiment: Inhibition of T7 bacteriophage fused human STK36 at 10 uM by KINOMEscan analysis relative to control
[17] = target: Mitogen-activated protein kinase kinase kinase kinase 5 (Homo sapiens) (UniProt Q9Y4K4); experiment: Inhibition of T7 bacteriophage fused human MAP4K5 at 10 uM by KINOMEscan analysis relative to control
[18] = target: Aurora kinase C (Homo sapiens) (UniProt Q9UQB9); experiment: Inhibition of T7 bacteriophage fused human AURKC at 10 uM by KINOMEscan analysis relative to control
[19] = target: Epithelial discoidin domain-containing receptor 1 (Homo sapiens) (UniProt Q08345); experiment: Inhibition of T7 bacteriophage fused human DDR1 at 10 uM by KINOMEscan analysis relative to control
[20] = system: Epidermal growth factor receptor (Homo sapiens), P00533 [UNDEFINED MUTATION]; experiment: Inhibition of T7 bacteriophage fused human EGFR L747/S752del/P753S mutant at 10 uM by KINOMEscan analysis relative to control; values are per cent of control
[21] = target: Ephrin type-B receptor 4 (Homo sapiens) (UniProt P54760); experiment: Inhibition of T7 bacteriophage fused human EPHB4 at 10 uM by KINOMEscan analysis relative to control
[22] = target: Serine/threonine-protein kinase N1 (Homo sapiens) (UniProt Q16512); experiment: Inhibition of T7 bacteriophage fused human PKN1 at 10 uM by KINOMEscan analysis relative to control
[23] = system: Tyrosine-protein kinase ABL1 (Homo sapiens), P00519 [F317I]; experiment: Inhibition of T7 bacteriophage fused human phosphorylated ABL1 F317I mutant at 10 uM by KINOMEscan analysis relative to control
[24] = target: Dual specificity protein kinase CLK2 (Homo sapiens) (UniProt P49760); experiment: Inhibition of T7 bacteriophage fused human CLK2 at 10 uM by KINOMEscan analysis relative to control; values are per cent of control
[25] = target: Mitogen-activated protein kinase 12 (Homo sapiens) (UniProt P53778); experiment: Inhibition of T7 bacteriophage fused human p38-gamma at 10 uM by KINOMEscan analysis relative to control
[26] = target: Ephrin type-A receptor 6 (Homo sapiens) (UniProt Q9UF33); experiment: Inhibition of T7 bacteriophage fused human EPHA6 at 10 uM by KINOMEscan analysis relative to control
[27] = target: Homeodomain-interacting protein kinase 4 (Homo sapiens) (UniProt Q8NE63); experiment: Inhibition of T7 bacteriophage fused human HIPK4 at 10 uM by KINOMEscan analysis relative to control
[28] = target: Rho-associated protein kinase 2 (Homo sapiens) (UniProt O75116); experiment: Inhibition of T7 bacteriophage fused human ROCK2 at 10 uM by KINOMEscan analysis relative to control
[29] = target: Ankyrin repeat and protein kinase domain-containing protein 1 (Homo sapiens) (UniProt Q8NFD2); experiment: Inhibition of T7 bacteriophage fused human ANKK1 at 10 uM by KINOMEscan analysis relative to control
[30] = target: Serine/threonine-protein kinase RIO1 (Homo sapiens) (UniProt Q9BRS2); experiment: Inhibition of T7 bacteriophage fused human RIOK1 at 10 uM by KINOMEscan analysis relative to control
[31] = system: Tyrosine-protein kinase ABL1 (Homo sapiens), P00519 [M351T]; experiment: Inhibition of T7 bacteriophage fused human phosphorylated ABL1 M351T mutant at 10 uM by KINOMEscan analysis relative to control

Sequence of Interferon-induced, double-stranded RNA-activated protein kinase (Homo sapiens) (P19525 whole entry, the tested form may be a part): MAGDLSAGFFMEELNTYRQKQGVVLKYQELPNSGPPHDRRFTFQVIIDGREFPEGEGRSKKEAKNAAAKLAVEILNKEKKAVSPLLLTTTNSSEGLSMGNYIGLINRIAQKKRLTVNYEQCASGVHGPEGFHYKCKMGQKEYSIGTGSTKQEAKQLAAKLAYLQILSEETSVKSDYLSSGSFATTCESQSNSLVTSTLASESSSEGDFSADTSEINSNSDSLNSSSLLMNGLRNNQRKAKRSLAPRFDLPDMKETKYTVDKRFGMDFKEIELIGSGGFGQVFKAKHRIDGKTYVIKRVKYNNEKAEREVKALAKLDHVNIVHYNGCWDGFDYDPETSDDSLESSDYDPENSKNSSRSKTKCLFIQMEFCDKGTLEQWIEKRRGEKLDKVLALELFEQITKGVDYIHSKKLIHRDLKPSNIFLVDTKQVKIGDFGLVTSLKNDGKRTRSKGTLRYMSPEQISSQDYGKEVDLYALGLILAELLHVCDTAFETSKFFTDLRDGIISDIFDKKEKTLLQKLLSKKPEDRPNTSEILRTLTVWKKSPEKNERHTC
Sequence of Mast/stem cell growth factor receptor Kit (Homo sapiens), P10721 [V559D,T670I] (P10721 whole entry V559D/T670I, the tested form may be a part): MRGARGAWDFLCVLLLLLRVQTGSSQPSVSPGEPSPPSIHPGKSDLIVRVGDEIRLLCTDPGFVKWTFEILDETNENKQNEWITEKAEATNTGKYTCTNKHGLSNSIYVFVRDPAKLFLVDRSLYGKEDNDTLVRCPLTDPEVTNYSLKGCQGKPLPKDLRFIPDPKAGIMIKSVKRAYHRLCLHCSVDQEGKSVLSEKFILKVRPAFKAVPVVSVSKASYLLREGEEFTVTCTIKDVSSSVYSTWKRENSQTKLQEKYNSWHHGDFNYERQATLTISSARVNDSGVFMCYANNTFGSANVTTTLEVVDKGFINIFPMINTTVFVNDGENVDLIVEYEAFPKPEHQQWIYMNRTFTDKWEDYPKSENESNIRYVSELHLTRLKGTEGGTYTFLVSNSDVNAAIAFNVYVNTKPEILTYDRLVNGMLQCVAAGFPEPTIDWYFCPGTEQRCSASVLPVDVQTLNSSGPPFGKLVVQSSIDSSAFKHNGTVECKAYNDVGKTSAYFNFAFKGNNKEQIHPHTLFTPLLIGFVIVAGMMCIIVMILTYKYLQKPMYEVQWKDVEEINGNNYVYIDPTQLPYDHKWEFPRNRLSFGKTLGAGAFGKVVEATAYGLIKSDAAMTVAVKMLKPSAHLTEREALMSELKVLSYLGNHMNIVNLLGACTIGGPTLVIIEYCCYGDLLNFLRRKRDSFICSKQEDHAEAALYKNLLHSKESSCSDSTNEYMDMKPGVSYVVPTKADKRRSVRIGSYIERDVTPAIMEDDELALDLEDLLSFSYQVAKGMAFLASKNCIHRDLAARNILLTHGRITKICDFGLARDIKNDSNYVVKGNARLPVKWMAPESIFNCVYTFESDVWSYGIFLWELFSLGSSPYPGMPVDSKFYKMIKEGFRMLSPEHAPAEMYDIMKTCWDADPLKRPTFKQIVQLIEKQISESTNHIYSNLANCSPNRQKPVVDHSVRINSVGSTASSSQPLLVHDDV
Sequence of Serine/threonine-protein kinase RIO1 (Homo sapiens) (Q9BRS2 whole entry, the tested form may be a part): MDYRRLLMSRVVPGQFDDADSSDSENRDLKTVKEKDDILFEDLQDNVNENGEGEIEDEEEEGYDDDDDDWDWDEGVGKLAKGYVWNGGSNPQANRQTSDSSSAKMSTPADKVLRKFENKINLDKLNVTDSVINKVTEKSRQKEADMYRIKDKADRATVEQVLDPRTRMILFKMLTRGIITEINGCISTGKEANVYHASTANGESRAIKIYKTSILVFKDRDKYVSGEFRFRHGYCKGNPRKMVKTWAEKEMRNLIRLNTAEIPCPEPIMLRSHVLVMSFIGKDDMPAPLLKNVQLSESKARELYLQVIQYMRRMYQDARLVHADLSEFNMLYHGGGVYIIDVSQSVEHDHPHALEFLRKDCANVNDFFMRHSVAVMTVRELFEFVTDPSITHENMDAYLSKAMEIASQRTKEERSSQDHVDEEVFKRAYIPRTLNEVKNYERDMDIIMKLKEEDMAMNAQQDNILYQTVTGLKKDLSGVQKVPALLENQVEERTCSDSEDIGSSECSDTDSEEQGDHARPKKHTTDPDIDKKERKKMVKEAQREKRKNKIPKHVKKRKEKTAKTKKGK
Sequence of Calcium/calmodulin-dependent protein kinase type II subunit alpha (Homo sapiens) (Q9UQM7 whole entry, the tested form may be a part): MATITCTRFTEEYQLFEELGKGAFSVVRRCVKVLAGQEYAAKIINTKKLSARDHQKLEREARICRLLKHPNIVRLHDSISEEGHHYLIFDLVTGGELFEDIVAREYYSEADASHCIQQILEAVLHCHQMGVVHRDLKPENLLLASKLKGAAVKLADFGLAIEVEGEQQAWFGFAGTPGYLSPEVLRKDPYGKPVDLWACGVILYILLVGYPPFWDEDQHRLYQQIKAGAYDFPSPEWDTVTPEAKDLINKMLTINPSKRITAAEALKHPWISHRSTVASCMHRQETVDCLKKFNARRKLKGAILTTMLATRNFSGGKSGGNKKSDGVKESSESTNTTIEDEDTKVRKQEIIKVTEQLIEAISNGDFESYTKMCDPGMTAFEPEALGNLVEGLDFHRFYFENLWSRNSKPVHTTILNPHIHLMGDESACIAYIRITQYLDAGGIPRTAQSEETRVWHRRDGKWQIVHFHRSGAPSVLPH
Sequence of Epidermal growth factor receptor (Homo sapiens), P00533 [G719S] (P00533 whole entry G719S, the tested form may be a part): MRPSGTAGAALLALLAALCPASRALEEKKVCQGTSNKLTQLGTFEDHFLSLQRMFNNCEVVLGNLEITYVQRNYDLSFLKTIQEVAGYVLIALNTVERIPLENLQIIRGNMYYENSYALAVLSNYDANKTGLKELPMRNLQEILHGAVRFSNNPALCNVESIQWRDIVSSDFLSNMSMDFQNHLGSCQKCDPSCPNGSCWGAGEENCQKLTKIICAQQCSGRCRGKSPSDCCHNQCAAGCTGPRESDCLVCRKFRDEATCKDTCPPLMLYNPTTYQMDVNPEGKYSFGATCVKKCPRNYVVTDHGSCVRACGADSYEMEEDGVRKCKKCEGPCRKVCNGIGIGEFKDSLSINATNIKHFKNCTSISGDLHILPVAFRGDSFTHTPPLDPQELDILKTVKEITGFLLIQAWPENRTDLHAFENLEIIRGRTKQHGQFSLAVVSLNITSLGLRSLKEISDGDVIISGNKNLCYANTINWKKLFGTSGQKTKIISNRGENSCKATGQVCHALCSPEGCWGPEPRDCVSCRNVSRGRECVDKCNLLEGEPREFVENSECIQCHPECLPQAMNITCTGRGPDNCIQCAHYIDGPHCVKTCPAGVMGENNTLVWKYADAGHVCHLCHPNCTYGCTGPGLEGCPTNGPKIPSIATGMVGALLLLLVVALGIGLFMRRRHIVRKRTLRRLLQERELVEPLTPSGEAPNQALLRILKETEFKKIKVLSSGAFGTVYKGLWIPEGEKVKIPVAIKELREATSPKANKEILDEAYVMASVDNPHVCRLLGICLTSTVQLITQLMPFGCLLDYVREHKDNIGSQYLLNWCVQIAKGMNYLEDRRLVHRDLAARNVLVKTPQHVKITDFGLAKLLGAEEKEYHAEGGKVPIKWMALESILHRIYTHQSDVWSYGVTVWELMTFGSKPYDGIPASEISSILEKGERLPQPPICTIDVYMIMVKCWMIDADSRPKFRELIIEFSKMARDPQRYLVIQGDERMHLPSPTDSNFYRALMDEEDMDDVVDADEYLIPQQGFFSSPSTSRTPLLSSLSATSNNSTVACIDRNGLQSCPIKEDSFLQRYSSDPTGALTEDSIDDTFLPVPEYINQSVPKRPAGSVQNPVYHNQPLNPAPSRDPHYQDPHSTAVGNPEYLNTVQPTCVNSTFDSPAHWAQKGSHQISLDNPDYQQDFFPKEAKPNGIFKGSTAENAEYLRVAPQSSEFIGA
Sequence of Dual specificity protein kinase CLK2 (Homo sapiens) (P49760 whole entry, looked up, the tested form may be a part): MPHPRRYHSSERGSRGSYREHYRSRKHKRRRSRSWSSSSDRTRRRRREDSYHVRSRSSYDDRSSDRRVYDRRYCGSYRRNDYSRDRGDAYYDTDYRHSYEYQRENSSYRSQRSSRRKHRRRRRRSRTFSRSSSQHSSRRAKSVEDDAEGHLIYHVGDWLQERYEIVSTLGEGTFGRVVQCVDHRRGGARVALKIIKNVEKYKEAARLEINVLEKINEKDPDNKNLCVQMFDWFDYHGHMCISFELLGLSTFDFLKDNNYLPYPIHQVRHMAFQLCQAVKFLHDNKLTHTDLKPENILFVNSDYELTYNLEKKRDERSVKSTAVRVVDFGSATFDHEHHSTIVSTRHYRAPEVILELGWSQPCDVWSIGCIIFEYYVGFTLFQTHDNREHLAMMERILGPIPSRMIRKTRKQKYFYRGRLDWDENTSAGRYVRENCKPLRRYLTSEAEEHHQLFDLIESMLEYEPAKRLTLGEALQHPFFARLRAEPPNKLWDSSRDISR
Sequence of Ankyrin repeat and protein kinase domain-containing protein 1 (Homo sapiens) (Q8NFD2 whole entry, the tested form may be a part): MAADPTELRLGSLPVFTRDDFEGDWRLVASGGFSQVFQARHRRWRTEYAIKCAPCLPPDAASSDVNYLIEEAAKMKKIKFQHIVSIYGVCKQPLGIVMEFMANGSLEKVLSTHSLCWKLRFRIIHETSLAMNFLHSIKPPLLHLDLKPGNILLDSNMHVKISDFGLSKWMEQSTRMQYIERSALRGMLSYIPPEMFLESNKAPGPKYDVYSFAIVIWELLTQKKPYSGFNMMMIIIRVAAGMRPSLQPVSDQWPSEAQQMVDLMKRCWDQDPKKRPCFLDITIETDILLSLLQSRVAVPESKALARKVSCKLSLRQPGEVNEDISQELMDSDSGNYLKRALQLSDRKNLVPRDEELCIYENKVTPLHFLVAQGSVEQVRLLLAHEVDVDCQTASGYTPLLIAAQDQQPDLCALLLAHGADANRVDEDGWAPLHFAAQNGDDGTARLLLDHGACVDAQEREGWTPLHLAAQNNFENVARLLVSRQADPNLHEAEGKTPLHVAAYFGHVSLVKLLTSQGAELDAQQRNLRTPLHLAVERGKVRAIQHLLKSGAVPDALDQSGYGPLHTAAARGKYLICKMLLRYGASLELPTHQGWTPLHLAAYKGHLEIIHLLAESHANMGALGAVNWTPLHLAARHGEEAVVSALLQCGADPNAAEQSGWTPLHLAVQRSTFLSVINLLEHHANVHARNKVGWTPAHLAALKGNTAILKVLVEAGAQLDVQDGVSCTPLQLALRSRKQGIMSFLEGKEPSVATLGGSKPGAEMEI

Question: With `COc1cc(N2CCC(N3CCN(C)CC3)CC2)ccc1Nc1ncc2c(n1)N(C)c1ccccc1C(=O)N2C` as the compound, how does the inhibition [1] read?
Answer: 100%

Question: What about the residual activity [2] of the same compound?
Answer: 81%

Question: What about the inhibition [3] of the same compound?
Answer: 100%

Question: And the inhibition [4]?
Answer: 100%

Question: And the inhibition [5]?
Answer: 21%

Question: What about the inhibition [6] of the same compound?
Answer: 100%

Question: And the inhibition [7]?
Answer: 51%

Question: And the inhibition [8]?
Answer: 100%

Question: What about the residual activity [9] of the same compound?
Answer: 98%

Question: What about the inhibition [10] of the same compound?
Answer: 84%

Question: What about the inhibition [11] of the same compound?
Answer: 58%

Question: What about the inhibition [12] of the same compound?
Answer: 72%

Question: And the inhibition [13]?
Answer: 86%

Question: And the inhibition [14]?
Answer: 89%

Question: What about the inhibition [15] of the same compound?
Answer: 100%

Question: What about the inhibition [16] of the same compound?
Answer: 97%

Question: What about the inhibition [17] of the same compound?
Answer: 100%

Question: And the inhibition [18]?
Answer: 50%

Question: And the inhibition [19]?
Answer: 100%

Question: What about the residual activity [20] of the same compound?
Answer: 84%

Question: And the inhibition [21]?
Answer: 100%

Question: What about the inhibition [22] of the same compound?
Answer: 100%

Question: What about the inhibition [23] of the same compound?
Answer: 17%

Question: What about the residual activity [24] of the same compound?
Answer: 72%

Question: What about the inhibition [25] of the same compound?
Answer: 76%

Question: And the inhibition [26]?
Answer: 89%

Question: What about the inhibition [27] of the same compound?
Answer: 100%

Question: And the inhibition [28]?
Answer: 87%

Question: And the inhibition [29]?
Answer: 100%

Question: And the inhibition [30]?
Answer: 100%

Question: What about the inhibition [31] of the same compound?
Answer: 94%
